Values quoted from earlier work as cited in patent US20210220374A1, “METHODS OF TREATING TE[…]” (Clarus Therapeutics, Inc., priority 2013, published 2021).

Conditions: cited from earlier work

| SMILES | Liver toxicity (oral therapy) | Serum half-life of testosterone in men (in vivo) |
| --- | --- | --- |
| C[C@]12CCC(=O)C=C1CC[C@@H]1[C@@H]2CC[C@@]2(C)[C@H]1CC[C@]2(C)O [methyltestosterone] | significant occurrence of liver toxicity | – |
| C[C@]12CC[C@H]3[C@@H](CCC4=CC(=O)CC[C@@]43C)[C@@H]1CC[C@@H]2O [testosterone] | – | 10 to 100 min |
